Measured values as given in ChEMBL document CHEMBL5154643, “Design of a "Two-in-One" Mutant-Selective Epidermal Growth Factor Receptor Inhibitor That Spans the Orthosteric and Allosteric Sites” (J Med Chem, 2022).

Assay: Apparent permeability across apical to basolateral side in human Caco-2 cells monolayer
Format: ADME, cell-based

In the case of `C=CC(=O)Nc1ccc(OC)c(Nc2cc(-c3[nH]c(SC)nc3-c3cccc(NC(=O)c4c(F)ccc(O)c4CN4C(=O)c5ccccc5C4=O)c3)ccn2)c1`, the Papp is reported as “Impermeable”.

For `CSc1nc(-c2cccc(NC(=O)c3c(F)ccc(O)c3CN3C(=O)c4ccccc4C3=O)c2)c(-c2ccnc(NC(C)=O)c2)[nH]1`, the Papp was “Impermeable”.
